Measured values published in patent US10861154B2, “Cell analysis system, cell analysis program and cell analysis method” (Sony Corporation, priority 2013, dated 2020).

Columns and labels:
Assay type in all cases: cell-based
[1] = system: iPS cell-derived neural cells “iCell Neuron”; test: Motion amount of iCell Neuron after adding ionotropic receptor antagonists (Example 2); settings: 5 μM, FIGS. 9 and 10
Experimental: (§1) On the microscope having the chamber, iPS cell-derived neural cells “iCell Neuron” (produced by Cellular Dynamics International, Inc.) and rat cerebral cortex primary culture (produced by Lonza, Inc.) were each set. Video images of the cells, of 260 frames at object lens magnification 20× and at 7.5 fps (for iCell Neuron) or 5 fps (for rat cerebral cortex primary culture), were taken and were obtained as cell images. A variety of ionotropic receptor antagonists were added to each of the cell cultures. The ionotropic receptor antagonist was Bicuculline which is GABA (gamma-aminobutyrate) receptor antagonist; or CNQX (6-cyano-7-nitroquinoxaline-2,3-dione) which is non-NMDA Glu (glutamate) receptor antagonist.
(§2) The cell image was analyzed with the use of the above-described cell analysis system. Specifically, the motion information was extracted by block matching, using each of the neural cells in the cell image as the extraction range, and the motion amount was calculated from the motion information. FIGS. 9 to 12 are graphs showing results of the calculation of the motion amount. […] Note that the motion amounts shown in the respective figures are average values of the calculated motion amounts for a plurality of detail parts of nerves. […]

[2] = system: rat cerebral cortex primary culture; test: Motion amount of rat cerebral cortex primary culture after adding ionotropic receptor antagonists (Example 2)
Experimental: as §1, §2

[3] = system: rat cerebral cortex primary culture; test: Motion amount of rat cerebral cortex primary culture after adding aquaporin inhibitor (Example 3); settings: 5 μm of HgCl2, FIG. 15
Experimental: Further, on the microscope having the chamber, rat cerebral cortex primary culture (produced by Lonza, Inc.) was set. A video image of the cells, of 260 frames at object lens magnification 20× and at 7.5 fps (for iCell Neuron) or 5 fps (for rat cerebral cortex primary culture), was taken and was obtained as a cell image. To the cell culture, […] of HgCl2 as aquaporin inhibitor was added.
The cell image was analyzed with the use of the above-described cell analysis system. Specifically, the motion information was extracted by block matching, using each of the neural cells in the cell image as the extraction range, and the motion amount was calculated from the motion information. FIG. 15 is a graph showing a result of the calculation of the motion amount. In the figure, “0 min” in the abscissa is the time of the addition of the […], and the ordinate indicates a relative motion amount when the value before adding HgCl2 (at 0 min) is assumed to be 1.

[4] = system: metabolism of the cell; test: Effect on metabolism of the cell; settings: 5 μm of HgCl2
[5] = system: rat cerebral cortex primary culture; test: Motion amount of rat cerebral cortex primary culture on change in osmotic pressure by galactose (Example 3); settings: galactose at a final concentration of 2.5%, compared with no galactose, FIG. 14
Experimental: On the microscope having the chamber, rat cerebral cortex primary culture (produced by Lonza, Inc.) was set. A video image of the cells, of 260 frames at object lens magnification 20× and at 5 fps, was taken and was obtained as a cell image. To the cell culture, galactose at a final concentration of 2.5% was added. The cell image was analyzed with the use of the above-described cell analysis system. Specifically, the motion information was extracted by block matching, using each of the neural cells in the cell image as the extraction range, and the motion amount was calculated from the motion information.

SMILES: N#Cc1cc2c(cc1[N+](=O)[O-])=NC(=O)C(=O)N=2 [CNQX, 6-cyano-7-nitroquinoxaline-2,3-dione]
- relative motion amount after adding the ionotropic receptor antagonist, value at 0 min = 1 [1]: transiently reduced
- relative motion amount after adding the ionotropic receptor antagonist, value at 0 min = 1 ([2]; 5 μM, FIGS. 11 and 12): decreased
- motion amount for each individual cell ([2]; 5 μm of CNQX, FIG. 13): the cells in which the motion amount was decreased by an influence of the Glu receptor antagonist and the cells in which the motion amount was not decreased

SMILES: [Cl][Hg][Cl] [HgCl2]
- relative motion amount after adding HgCl2, value at 0 min = 1 [3]: transiently reduced
- inhibition of metabolism of the cell [4]: does not inhibit metabolism of the cell

SMILES: O=C[C@H](O)[C@@H](O)[C@@H](O)[C@H](O)CO [galactose]
- median value of the motion amounts for the extraction ranges [5]: almost completely reduced
